Results published in PubChem BioAssay AID179 (DTP/NCI, 2004).
Several values for one entry are separate records, joined by “and”; a condition that tells them apart may be missing. Equal entries are not always repeated. Activity calls are given as the source filed them.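 Rule for the calls: active = compounds giving half or more protection of infected cells from virus-caused growth loss, again on retest; inactive = the rest.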 Where a SMILES comes first, the peptide text is derived from it. Bridges are numbered along the chain shown (N, C = ends). Roman numbers before positions name the chains, in order. The star is where a group is joined. Cbz = O=C(OCc1ccccc1)*

Test system: CEM cells HIV-1 protection, formazan growth assay
Test: NCI AIDS Antiviral Assay
Conditions: for IC50: measured here: growth of uninfected CEM cells
Outline: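 Human CEM cells, uninfected and HIV-1-infected, exposed to five drug concentrations; growth measured by soluble formazan assay and scored as percent protection from infection, with protecting compounds retested.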

SMILES	EC50 [µM]	IC50	outcome
CN(C)CC(=O)N1CCc2c([nH]c3ccccc23)C1c1cccnc1 (configuration not stated)	> 107	> 107 µM	–
CSCc1nc2ccccc2c(C)[n+]1[O-]	> 200	> 200 µM	–
Cc1cccc(Cl)c1NC(N)=S	> 36.3	> 36.3 µM	–
CCOC(=O)c1oc2ccc(OC)c3c2c1CCC3	–	–	inactive
O=c1[nH]c(Nc2cccc(C(F)(F)F)c2)nc2nc[nH]c12	> 200	97.7 µM	–
CCCCCCCCCCCCCCC(C)CCC(=O)O (configuration not stated)	–	–	inactive
S=c1[nH]nc2ccccn12	> 200	> 200 µM	–
Cc1ccc(S(=O)(=O)[C@@H](Cl)[C@H]2N=C(Cl)NN=C2c2ccccc2)cc1	> 200	37.2 µM	–
CCN(CC)CCNc1ccc2ncn3c4c(OC)cccc4c(=O)c1c23	> 50.1	0.871 µM	–
COc1ccc(NC(=O)CC(=O)N2N=C(C)C(N=Nc3ccc(S(=O)(=O)c4ccc(N=NC5C(=O)N(C(=O)CC(=O)Nc6ccc(OC)cc6)N=C5C)cc4)cc3)C2=O)cc1 (configuration not stated)	> 100	95.5 µM	–
N#C[C@H](c1nc2ccccc2[nH]1)c1nc2ccccc2nc1Cl	> 200	11 µM	–
COC(=O)/C=C\C(C#N)(C#N)N=Cc1ccc(C)s1	> 2	0.575 µM	–
COC(=O)[C@@H]1c2cc3c(c(O)c2[C@@H](OC2OC(C)C(OC)C(C)(OC)C2OC)C[C@]1(C)O)C(=O)c1c(O)cc2c(c1C3=O)O[C@H]1O[C@]2(C)[C@H](O)[C@@H](N(C)C)[C@@H]1O (some centres not stated)	–	–	inactive
CCOC1CN=C(Nc2cccc3ccccc23)S1 (configuration not stated)	> 200	162 µM	–
CC(NC(=O)C(NC(=O)OCc1ccccc1)C(C)C)C(=O)NCC(=O)O (stereo not drawn) (Cbz-Val-Ala-Gly-OH; configuration not given here)	> 200	> 200 µM	–
CC1=N/C(=C\c2ccc(C#N)cc2)C(=O)O1	> 123	> 123 µM	–
C=C(C)CC(C)(c1cc2ccccc2n1C)N1CCOCC1 (configuration not stated)	> 100	64.6 µM	–
C(=N\OCc1ccccc1)/c1ncccc1C1OCCO1	> 331	309 µM	–
S=c1cn[nH]c2c(Br)cccc12	> 89.1	67.6 µM	–
c1ccn2nnnc2c1	> 2090	> 2090 µM	–
CNC1C(OC2C(OC3C(O)C(O)C(N=C(N)N)C(O)C3N=C(N)N)OC(C)C2(O)C=O)OC(CO)C(OC2OC(CO)C(O)C(O)C2O)C1O (configuration not stated)	–	–	inactive
COC(=O)C1(C(=O)OC)CC2=C(S(=O)(=O)c3ccccc3)C[C@@H](C#N)[C@H]2C1	> 200	110 µM	–

SMILES	EC50 [µM]	IC50	outcome
c1ccc(-c2csc3[nH]c4ccccc4[n+]23)cc1	–	–	inactive
CCCCOC(=O)C1CN2C=CC=NC2=NC1(C(F)(F)F)C(F)(F)F (configuration not stated)	–	–	inactive
O=c1c(Cc2ccccc2)c(O)n(Cc2nc3ccccc3[nH]2)c(=S)n1-c1ccccc1	> 200	> 200 µM	–
O[C@H]1c2cccn2-c2ccccc2S[C@H]1c1ccccc1	> 83.2	43.7 µM	–
CC1=Cc2cc3[n-]c(cc4nc(cc5[n-]c(cc1n2)cc5C)C(C)=C4CCC(=O)O)c(CCC(=O)O)c3C.[Pd+2]	> 11.7	1.02 µM	–
CC1(C)CC(Br)(C(Br)c2ccccc2)C(=O)c2ccccc21 (configuration not stated)	> 200	3.89 µM	–
COc1cc(-c2oc3c(OC)c(OC)cc(O)c3c(=O)c2OC)ccc1O	> 100	12.6 µM and 3.55 µM	–
O=C(O)c1c(CC(Cc2ccc3c(c2)CCC3)C(=O)O)ccc2c1CCC2 (configuration not stated)	> 200	145 µM	–
CCC12CCCN3CCC4(C(=Nc5cc(OC)ccc54)CC1)C32 (configuration not stated)	–	–	inactive
O=C(COc1ccc(Br)cc1Br)N1N=C(c2ccc([N+](=O)[O-])o2)CC1(O)c1ccccc1 (configuration not stated)	> 6.61	> 6.61 µM	–
Cc1cc(=O)[nH]c(CNC(=O)c2cccc3ccccc23)n1	> 851	> 851 µM	–
O=c1c2ccccc2oc2ccccc12 (tested in a mixture with another compound)	> 11	0.776 µM	–
CC(C)(C)C(=O)CS(=O)(=O)O	> 200	> 200 µM	–
Cc1cc2c3ccccc3n(C)c2c2c1C(=O)c1ccccc1C2=O	> 7.94	> 7.94 µM	–
CCOP(=O)(O)Cc1c(Cl)c(Cl)c(CP(=O)(O)OCC)c(Cl)c1Cl	> 200	132 µM	–
C=CC1(O)CC(n2cc(C)c(=O)[nH]c2=O)OC1CO (configuration not stated)	> 200	> 200 µM	–
C=CCCC1(CCP(=O)(c2ccccc2)c2ccccc2)OCCO1	> 708	155 µM	–
CN(C)c1ccccc1CC(c1c[nH]c2ccccc12)c1c[nH]c2ccccc12	> 19.1	> 19.1 µM	–
O=c1[nH]c2cc3[nH]c4ncccc4c(=O)c3cc2[nH]1	148	> 200 µM	–
O=C(O)c1cc2oc(-c3ccccc3)cc2[nH]1	> 219	155 µM	–
CCOC(=O)CCCNC(=O)c1ccccc1SC(=O)CCCC[n+]1ccccc1	> 2	0.912 µM	–
CC1=C(c2ccccc2)C(c2ccccc2)=C(c2ccccc2)C2(c3ccccc3)C(=O)C(C)CN12 (configuration not stated)	> 5.75	> 5.75 µM	–

SMILES	EC50 [µM]	IC50	outcome
C/C=C1\CN(C(=O)OC(C)(C)C)C1C(=O)OC(C)(C)C (configuration not stated)	> 200	85.1 µM	–
C/C(=N/O)c1sc(-c2nc(C)c(/C(C)=N\O)s2)nc1C	> 115	> 115 µM	–
COC(=O)C(=O)C(C(C)=O)C(=O)NCc1ccccc1 (configuration not stated)	47.9	67.6 µM	–
CCOC(=O)c1oc2cc(O)ccc2c(=O)c1-c1ccc(OC)c(OC)c1	> 200	51.3 µM	–
Cc1ncc([N+](=O)[O-])n1CCN(C)C(=O)CCCn1ccnc1[N+](=O)[O-]	> 200	> 200 µM	–
NC(CSSCC(N)C(=O)NC(Cc1ccccc1)C(=O)O)C(=O)NC(Cc1ccccc1)C(=O)O (stereo not drawn) (I: H-Cys-Phe-OH / II: H-Cys-Phe-OH; disulfide I:1-II:1; configuration not given here)	> 200	> 200 µM	–
COc1cncn2nc(C)nc12	> 75.9	> 75.9 µM	–
CC[C@@H]1OC2(C)CC(S(=O)(=O)c3ccccc3)CC1O2 (some centres not stated)	26.3	170 µM	–
COc1ccc(-c2nc3ccc([N+](=O)[O-])cc3c(=O)[nH]2)cc1	–	–	inactive
O=C1c2cccc3c2C(=O)c2c(cccc21)OCCOCCOCCOCCO3	–	–	inactive
COc1ccc(C(C)(C)c2cc3c(cc2OC)OCO3)cc1	> 45.7	0.0316 µM	–
CC1=NC(C)(COC(=O)C2(C)NC(C)(CO)CO2)COC1=O (configuration not stated)	> 200	> 200 µM	–
Nc1ccc(C(=O)Nc2ccccc2N)cc1	> 1100	3.8 µM	–
O=c1nc2[nH]c3c4cccc5cccc(c3nc2c(=O)[nH]1)c54	> 200	0.603 µM	–
C/C=C(/CCC1NCCC2c3ccccc3NC12)[Si](C)(C)C (configuration not stated)	–	–	inactive
NC1=NS(=O)(=O)Nc2nc(-c3ccccc3)[nH]c21	> 20	> 20 µM	–
Cc1ccc(SSCCN)cc1	> 200	11.7 µM	–
CC1(C)OC2CC3COC(=O)C3CC2O1 (configuration not stated)	> 1170	> 1170 µM	–
COC(=O)c1cc(/C=C2\Cc3cc4c(cc3C2=O)CCC4)cc2c1CCC2	> 200	> 200 µM	–
CC(=O)Nc1c(I)c(NC(C)=O)c(I)c(C(=O)O)c1I	–	–	inactive
C#CC(O)c1ccc(OC)c(OC)c1 (configuration not stated)	–	–	inactive
CN(C)c1cc(CNCCSC(C)(C)C)nc(CNCCSC(C)(C)C)c1	> 200	4.57 µM	–

SMILES	EC50 [µM]	IC50	outcome
Nn1c(CNc2ccc(-c3nnc(Nc4ccc(Cl)cc4)n3N)cc2)nnc1Nc1ccc(Cl)cc1	> 200	67.6 µM	–
CN(C)N=Nc1cccc(C(N)=O)c1	> 646	145 µM	–
O=C1O[C@H](C(Cl)(Cl)Cl)N2CCCC12 (some centres not stated)	> 204	> 204 µM	–
O=[N+]([O-])c1ccc(S(=O)(=O)N=Ic2ccccc2)cc1	> 200	> 200 µM	–
N#C/C(=C\NC(N)=S)C(=O)c1ccc2ccccc2c1	–	–	inactive
COC(=O)C(C)NC(=O)c1ccccc1SC(=O)CCCC[n+]1ccccc1 (configuration not stated)	> 200	2.4 µM	–
CCN(CC)c1ccc2cc(C(=O)Nc3nc(C45CC6CC(CC(C6)C4)C5)cs3)c(=O)oc2c1	> 200	> 200 µM	–
CCCCCCCCCCCCCCCCCCNC(=O)c1ccccc1[Se][Se]c1ccccc1C(=O)NCCCCCCCCCCCCCCCCCC	> 0.794	> 0.794 µM	–
N#CCCN(CCC#N)c1ccc(/C=C2\SC(=S)NC2=O)cc1	> 200	> 200 µM	–
O=C(CCN(CCO)CCO)Nc1ccc2c(c1)C(=O)c1ccc(NC(=O)CCN(CCO)CCO)cc1C2=O	> 200	1.66 µM	–
O=Cc1cc2c(cc1-c1c(C=O)ccc3c1OCO3)OCO2	> 63.1	33.1 µM	–
O=C(n1[nH]c(=O)n(-c2ccc([N+](=O)[O-])cc2)c1=O)C(Cl)(Cl)Cl	> 200	> 200 µM	–
O=C1CSC(=O)N1	> 2140	> 2140 µM	–
Cc1cc(C)n2c(-c3ccccc3)c(C)cc2n1	> 110	17.4 µM	–
CC(O)(C#N)CC(O)(C(F)(F)Cl)C(F)(F)Cl (configuration not stated)	195	> 200 µM	–
CC1(C)OC(=O)C(C#N)=C1/C=C/c1coc2ccc(Cl)cc2c1=O	> 29.5	> 29.5 µM	–
COc1cc2c[n+](C)c3c(c2cc1OC)Cc1cc(OS(C)(=O)=O)c(OC)cc1-3	> 57.5	10.5 µM	–
CC(=O)NC(CS)C(=O)NC(CO)C(=O)NC(CO)C(=O)NC(Cc1c[nH]c2ccccc12)C(=O)N1CCCC1C(=O)NC(CO)C(=O)NC(Cc1c[nH]c2ccccc12)C(=O)NC(Cc1c[nH]cn1)C(=O)NC(CO)C(=O)NC(Cc1c[nH]c2ccccc12)C(=O)NCC(=O)NCC(=O)NC(C)C(=O)NC(CCC(N)=O)C(=O)NC(CCCCN)C(=O)NC(C)C(=O)NC(CCCNC(=N)N)C(=O)NC(CCCCN)C(N)=O (configuration not stated) (Ac-CSSWPSWHSWGGAQKARK-NH2; configuration not given here)	> 20	17.4 µM	–
CCC[CH2][Sn]1([CH2]CCC)[O]N=C(c2ccccc2)C(c2ccccc2)[O]1 (configuration not stated)	> 19.5	2.45 µM	–
